From patent US9290507B2, “B-RAF kinase inhibitors” (Boehringer Ingelheim International GmbH, priority 2010, dated 2016)

Target: B-Raf (V600E)-kinase (Homo sapiens (Human), UniProt P15056, V600E)
Test: Kinase test B-Raf (V600E)
Type: biochemical
Conditions: 1 h preincubation, 250 μM ATP
Description: In a dilution series 10 μL/well of test substance solution are placed in a multiwell plate. The dilution series is selected so that generally a range of concentrations of 2 μM to 0.119 nM or 0.017 nM is covered. If necessary the initial concentration of 2 μM is changed to 50 μM, 10 μM or 0.4 μM or 0.2857 μM and further dilution is carried out accordingly. The final concentration of DMSO is 5%. 10 μL/well of the B-Raf (V600E)-kinase solution are pipetted in (containing 0.5 ng B-Raf (V600E)-kinase (e.g. from Upstate) in 20 mM Tris-HCl pH 7.5, 0.1 mM EDTA, 0.1 mM EGTA, 0.286 mM sodium orthovanadate, 10% glycerol, 1 mg/mL bovine serum albumin, 1 mM dithiothreitol) and the mixture is incubated for 1 h at RT under with shaking. The kinase reaction is started by the addition of 20 μL/well ATP solution [final concentration: 250 μM ATP, 30 mM Tris-HCl pH 7.5, 0.02% Brij, 0.2 mM sodium orthovanadate, 10 mM magnesium acetate, 0.1 mM EGTA, phosphatase cocktail (Sigma, #P2850, dilution recommended by the manufacturer)] and 10 μL/well MEK1 solution [containing 50 ng biotinylated MEK1 (prepared from purified MEK1 according to standard procedure, e.g. with EZ-Link Sulpho-NHS-LC-Biotin reagent, Pierce, #21335)] and carried out for 60 min at RT with constant shaking. The reaction is stopped by the addition of 12 μL/well of a 100 mM EDTA solution and incubation is continued for a further 5 min. 55 μL/well of the reaction solution are transferred into a streptavidin-coated plate (e.g. Streptawell HighBond, Roche, #11989685001) and shaken gently for 1 h at RT, in order to bind biotinylated MEK1 to the plate. After elimination of the liquid the plate is washed five times with 200 μL/well of 1×PBS and 100 μL/well solution of primary antibody plus europium-labelled secondary antibody [Anti Phospho-MEK (Ser217/221), Cell Signaling, #9121 and Eu-N1 labelled goat-anti-rabbit antibody, Perkin Elmer, #AD0105] is added, the primary antibody is diluted 1:2000 and the secondary antibody is diluted to 0.4-0.5 μg/mL in Delfia Assay Buffer (Perkin Elmer, #1244-111). After 1 h shaking at RT the solution is poured away and washed five times with 200 μL/well Delfia Wash Buffer (Perkin Elmer, #4010-0010/#1244-114). After the addition of 200 μL/well Enhancement Solution (Perkin Elmer, #4001-0010/#1244-105) the mixture is shaken for 10 min at RT and then measured in a Wallac Victor using the program “Delfia Time Resolved Fluorescence (Europium)”. IC50 values are obtained from these dosage-activity curves using a software program (GraphPadPrizm).

Sequence of B-Raf (V600E)-kinase (P15056 whole entry V600E): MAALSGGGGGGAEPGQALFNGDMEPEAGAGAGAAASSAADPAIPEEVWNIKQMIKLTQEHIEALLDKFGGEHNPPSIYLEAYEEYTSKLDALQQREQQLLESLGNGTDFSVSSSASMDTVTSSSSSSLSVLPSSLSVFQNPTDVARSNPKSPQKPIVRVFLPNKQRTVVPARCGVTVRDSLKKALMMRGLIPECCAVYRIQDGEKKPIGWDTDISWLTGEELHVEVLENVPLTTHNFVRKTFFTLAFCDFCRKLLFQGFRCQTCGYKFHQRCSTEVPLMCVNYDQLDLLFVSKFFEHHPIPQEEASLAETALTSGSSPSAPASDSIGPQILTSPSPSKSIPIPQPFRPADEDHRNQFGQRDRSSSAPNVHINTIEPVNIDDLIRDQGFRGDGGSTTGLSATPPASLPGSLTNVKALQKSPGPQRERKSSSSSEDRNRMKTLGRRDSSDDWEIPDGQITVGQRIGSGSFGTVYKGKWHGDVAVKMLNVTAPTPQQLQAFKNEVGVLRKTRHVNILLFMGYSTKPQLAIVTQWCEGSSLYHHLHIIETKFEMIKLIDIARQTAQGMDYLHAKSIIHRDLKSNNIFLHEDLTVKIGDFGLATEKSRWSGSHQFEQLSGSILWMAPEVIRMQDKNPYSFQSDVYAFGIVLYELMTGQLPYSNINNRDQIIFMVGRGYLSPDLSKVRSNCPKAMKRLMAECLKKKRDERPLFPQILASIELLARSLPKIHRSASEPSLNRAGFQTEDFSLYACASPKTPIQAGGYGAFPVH

Row | Compound | IC50
1 | Cc1ccc(C(=O)Nc2cc(C(C)(C)C)on2)cc1-n1cc(-c2cncc(N3CCN(C)CC3)c2)nn1 [I-1] | 0.008 µM
2 | Cc1ccc(C(=O)Nc2cc(C(C)(C)C)ccn2)cc1-n1cc(-c2cncc(N3CCN(C)CC3)c2)nn1 [I-2] | 0.018 µM
3 | Cc1ccc(C(=O)Nc2cc(C(C)(C)C)on2)cc1-n1cc(-c2cncc(N(C)CCN(C)C)c2)nn1 [I-3] | 0.007 µM
4 | Cc1ccc(C(=O)Nc2cc(C(C)(C)C)on2)cc1-n1cc(-c2cncc(N3CCN(C(C)(C)C)CC3)c2)nn1 [I-4] | 0.012 µM
5 | Cc1ccc(C(=O)Nc2cc(C(C)(C)C)on2)cc1-n1cc(-c2cncc(N3CCN(C4CCCC4)CC3)c2)nn1 [I-5] | 0.014 µM
6 | C=CCN1CCN(c2cncc(-c3cn(-c4cc(C(=O)Nc5cc(C(C)(C)C)on5)ccc4C)nn3)c2)CC1 [I-6] | 0.022 µM
7 | CCN1CCC2(CCN(c3cncc(-c4cn(-c5cc(C(=O)Nc6cc(C(C)(C)C)on6)ccc5C)nn4)c3)C2)C1 (centres unmarked) [I-7] | 0.009 µM
8 | Cc1ccc(C(=O)Nc2cc(C(C)(C)C)on2)cc1-n1cc(-c2cncc(N3CCN(CC4CCCO4)CC3)c2)nn1 (centres unmarked) [I-8] | 0.022 µM
9 | Cc1ccc(C(=O)Nc2cc(C(C)(C)C)on2)cc1-n1cc(-c2cncc(N3CCC(CN(C)C)CC3)c2)nn1 [I-9] | 0.012 µM
10 | Cc1ccc(C(=O)Nc2cc(C(C)(C)C)on2)cc1-n1cc(-c2cncc(N(C)C3CCOC3)c2)nn1 (centres unmarked) [I-10] | 0.008 µM
11 | Cc1ccc(C(=O)Nc2cc(C(C)(C)C)on2)cc1-n1cc(-c2cncc(NC3CCOC3)c2)nn1 (centres unmarked) [I-11] | 0.006 µM
12 | Cc1ccc(C(=O)Nc2cc(C(C)(C)C)on2)cc1-n1cc(-c2cncc(NC(C)(C)C)c2)nn1 [I-12] | 0.018 µM
13 | Cc1ccc(C(=O)Nc2cc(C(C)(C)C)n[nH]2)cc1-n1cc(-c2cncc(N3CCOCC3)c2)nn1 [I-13] | 0.012 µM
14 | Cc1ccc(C(=O)Nc2cc(C(C)(C)C)on2)cc1-n1cc(-c2cncc(NC(C)C)c2)nn1 [I-14] | 0.017 µM
15 | Cc1ccc(C(=O)Nc2cc(C(C)(C)C)on2)cc1-n1cc(-c2cncc(N3CCN(C)C(C)C3)c2)nn1 (centres unmarked) [I-15] | 0.021 µM
16 | Cc1ccc(C(=O)Nc2cc(C(C)(C)C)on2)cc1-n1cc(-c2cncc(N3CCN(CCN4CCOCC4)CC3)c2)nn1 [I-16] | 0.014 µM
17 | Cc1ccc(C(=O)Nc2cc(C(C)(C)C)on2)cc1-n1cc(-c2cncc(N3CCCOCC3)c2)nn1 [I-17] | 0.016 µM
18 | Cc1ccc(C(=O)Nc2cc(C(C)(C)C)on2)cc1-n1cc(-c2cncc(N(C)C)c2)nn1 [I-18] | 0.013 µM
19 | Cc1ccc(C(=O)Nc2cc(C(C)(C)C)on2)cc1-n1cc(-c2cncc(N3CCC3)c2)nn1 [I-19] | 0.011 µM

Row | Compound | IC50
20 | COCC(C)Nc1cncc(-c2cn(-c3cc(C(=O)Nc4cc(C(C)(C)C)on4)ccc3C)nn2)c1 (centres unmarked) [I-20] | 0.031 µM
21 | Cc1ccc(C(=O)Nc2cc(C(C)(C)C)on2)cc1-n1cc(-c2cncc(NCC(F)(F)F)c2)nn1 [I-21] | 0.05 µM
22 | Cc1ccc(C(=O)Nc2cc(C(C)(C)C)on2)cc1-n1cc(-c2cncc(NCCF)c2)nn1 [I-22] | 0.016 µM
23 | Cc1ccc(C(=O)Nc2cc(C(C)(C)C)on2)cc1-n1cc(-c2cncc(N3C[C@@H](C)O[C@@H](C)C3)c2)nn1 [I-23] | 0.026 µM
24 | Cc1ccc(C(=O)Nc2cc(C(C)(C)C)nn2C)cc1-n1cc(-c2cncc(N3CCOCC3)c2)nn1 [I-24] | 0.019 µM
25 | Cc1ccc(C(=O)Nc2cc(C(C)(C)C)on2)cc1-n1cc(-c2cncc(N(C)CC3CCCO3)c2)nn1 (centres unmarked) [I-25] | 0.045 µM
26 | Cc1ccc(C(=O)Nc2cc(C(C)(C)C)on2)cc1-n1cc(-c2cncc(N3CCN(C4CC4)CC3)c2)nn1 [I-26] | 0.028 µM
27 | CCCCN1CCN(c2cncc(-c3cn(-c4cc(C(=O)Nc5cc(C(C)(C)C)on5)ccc4C)nn3)c2)CC1 [I-27] | 0.015 µM
28 | Cc1ccc(C(=O)Nc2cc(C(C)(C)C)on2)cc1-n1cc(-c2cncc(NC3CC3)c2)nn1 [I-28] | 0.01 µM
29 | Cc1ccc(C(=O)Nc2cc(C(C)(C)C)on2)cc1-n1cc(-c2cncc(N(C)C3CCOCC3)c2)nn1 [I-29] | 0.007 µM
30 | CNc1cncc(-c2cn(-c3cc(C(=O)Nc4cc(C(C)(C)C)on4)ccc3C)nn2)c1 [I-30] | 0.014 µM
31 | Cc1ccc(C(=O)Nc2cc(C(C)(C)C)on2)cc1-n1cc(-c2cncc(N3CCN(CC(F)(F)F)CC3)c2)nn1 [I-31] | 0.098 µM
32 | Cc1ccc(C(=O)Nc2cc(C(C)(C)C)on2)cc1-n1cc(-c2cncc(N3CC(C)NC(C)C3)c2)nn1 (centres unmarked) [I-32] | 0.009 µM
33 | Cc1ccc(C(=O)Nc2cc(C(C)(C)C)on2)cc1-n1cc(-c2cncc(NCC3CCCO3)c2)nn1 (centres unmarked) [I-34] | 0.009 µM
34 | Cc1ccc(C(=O)Nc2cc(C(C)(C)C)on2)cc1-n1cc(-c2cncc(N(C)C(C)C)c2)nn1 [I-35] | 0.045 µM
35 | COCCNc1cncc(-c2cn(-c3cc(C(=O)Nc4cc(C(C)(C)C)on4)ccc3C)nn2)c1 [I-36] | 0.016 µM
36 | Cc1ccc(C(=O)Nc2cc(C(C)(C)C)on2)cc1-n1cc(-c2cncc(N3CCN(C(C)C)C(C)C3)c2)nn1 (centres unmarked) [I-37] | 0.02 µM
37 | Cc1ccc(C(=O)Nc2cc(C(C)(C)C)on2)cc1-n1cc(-c2cncc(NC3CCOCC3)c2)nn1 [I-38] | 0.01 µM
38 | Cc1ccc(C(=O)Nc2cc(C(C)(C)C)on2)cc1-n1cc(-c2cncc(N3CCCC3)c2)nn1 [I-39] | 0.041 µM

Row | Compound | IC50
39 | COCCCN1CCN(c2cncc(-c3cn(-c4cc(C(=O)Nc5cc(C(C)(C)C)on5)ccc4C)nn3)c2)CC1 [I-40] | 0.019 µM
40 | CCCN1CCN(c2cncc(-c3cn(-c4cc(C(=O)Nc5cc(C(C)(C)C)on5)ccc4C)nn3)c2)CC1 [I-41] | 0.008 µM
41 | Cc1ccc(C(=O)Nc2cc(C(C)(C)C)on2)cc1-n1cc(-c2cncc(N3CCCCC3)c2)nn1 [I-42] | 0.061 µM
42 | Cc1ccc(C(=O)Nc2cc(C(C)(C)C)on2)cc1-n1cc(-c2cncc(NC3CCCC3)c2)nn1 [I-43] | 0.038 µM
43 | Cc1ccc(C(=O)Nc2cc(C(C)(C)C)on2)cc1-n1cc(-c2cncc(N3CCN(C(C)C)CC3)c2)nn1 [I-44] | 0.011 µM
44 | COCCN1C(C)CN(c2cncc(-c3cn(-c4cc(C(=O)Nc5cc(C(C)(C)C)on5)ccc4C)nn3)c2)CC1C (centres unmarked) [I-45] | 0.029 µM
45 | Cc1ccc(C(=O)Nc2cc(C(C)(C)C)on2)cc1-n1cc(-c2cncc(NCCN(C)C)c2)nn1 [I-46] | 0.007 µM
46 | Cc1ccc(C(=O)Nc2cc(C(C)(C)C)on2)cc1-n1cc(-c2cncc(N3CCOCC3)c2)nn1 [I-47] | 0.01 µM
47 | CCN1CCN(c2cncc(-c3cn(-c4cc(C(=O)Nc5cc(C(C)(C)C)on5)ccc4C)nn3)c2)CC1 [I-48] | 0.006 µM
48 | CCOCCN1CCN(c2cncc(-c3cn(-c4cc(C(=O)Nc5cc(C(C)(C)C)on5)ccc4C)nn3)c2)CC1 [I-49] | 0.029 µM
49 | Cc1ccc(C(=O)Nc2cc(C(C)(C)C)on2)cc1-n1cc(-c2cncc(N3CCN(CC(C)C)CC3)c2)nn1 [I-50] | 0.013 µM
50 | Cc1ccc(C(=O)Nc2cc(C(C)(C)C)on2)cc1-n1cc(-c2cncc(N3CCC(N(C)C)CC3)c2)nn1 [I-51] | 0.012 µM
51 | Cc1ccc(C(=O)Nc2cc(C(C)(C)C)on2)cc1-n1cc(-c2cncc(N3CCCN(C(C)C)CC3)c2)nn1 [I-52] | 0.018 µM
52 | COCCN(C)c1cncc(-c2cn(-c3cc(C(=O)Nc4cc(C(C)(C)C)on4)ccc3C)nn2)c1 [I-53] | 0.011 µM
53 | Cc1ccc(C(=O)Nc2cc(C(C)(C)C)on2)cc1-n1cc(-c2cncc(NCC(F)F)c2)nn1 [I-54] | 0.051 µM
54 | Cc1ccc(C(=O)Nc2cc(C(C)(C)C)nn2C)cc1-n1cc(-c2cncc(N3CCN(C)CC3)c2)nn1 [I-55] | 0.016 µM
55 | CCN(C)c1cncc(-c2cn(-c3cc(C(=O)Nc4cc(C(C)(C)C)on4)ccc3C)nn2)c1 [I-56] | 0.018 µM
56 | Cc1ccc(C(=O)Nc2cc(C(F)(F)F)ccn2)cc1-n1cc(-c2cncc(N3CCC3)c2)nn1 [I-57] | 0.016 µM
